Experimental data taken from patent US20140024716A1, “Composition Comprising S-Allyl-L-Cysteine as Active Ingredient for Preventing or Treating Gastrointestinal Disorders” (PHARMAKING CO., LTD., priority 2009, published 2014).
Where “and” joins values, the source holds several entries; their conditions need not be identical. Equal values may be shown once.

Key:
[1] = test system: gastric lesions of rats induced by indomethacin; assay: Indomethacin-induced gastric lesion animal model; type: in vivo, Sprague-Dawley rats
Description: (§1) SAC was purchased from TCI Chemical Co. (Tokyo, Japan). Sterile water for injection (Model No. 73H5F21, Dae Han Pharmaceutical Co. Ltd.) was used as a vehicle, and Stillen® was used as a positive control material. 0.5% CMC-Na and sterile water for injection were used as excipients for Stillen®. Hydrochloric acid was purchased from Samjung Chemical, Co., ethanol was purchased from Baker, Co., aspirin was purchased from Sigma, Co., and indomethacin was purchased from Sigma, Co.
(§2) 7 to 8-week old male specific pathogen free (SPF) HsdKoat:Sprague-Dawley®™ SD®™rats (weight of 7-week old males was in the range of 208.44 to 227.39 g, and weight of 8-week old maleswas in the range of 223.85 to 245.03 g, purchased from Koatech, Co. Ltd., Gyunggido, Korea) were quarantined and acclimated in the Animal Lab for 7 days. The rats were bred at a temperature of 23 3° C., at a relative humidity of 55 15%, with light for 12 hours (light turned on at 08:00 and light turned off at 20:00) while air was ventilated 10 to 20 times/hr in the Animal Experiment Lab of Gyeonggi Bio-Center. Other environments for breeding which might influence the test for the entire test period were not considered for use. The rats were given free access to a solid laboratory diet (Harlan Co. Ltd., USA. Teklad certified global 18% protein rodent diet, 2918C) that was supplied by Folas International. […] The rats were given free access to tap water that was sterilized using a UV sterilizer and a micro filter with water bottles.
(§3) The rats were classified into a vehicle control group G1 to which only a vehicle was administered, a experimental group G2 to which 100 mg/kg of SAC was administered, a experimental group G3 to which 200 mg/kg of SAC was administered, a experimental group G4 to which 400 mg/kg of SAC was administered, and a positive control group G5 to which 100 mg/kg of Stillen® (55.6 mg/kg as an active ingredient) as a positive control material were administered. Each group included 8 rats in a hydrochloric acid-ethanol-induced animal model (Experiment Example 7) and included 6 rats in an aspirin-induced animal model (Experimental Example 8) and in an indomethacin-induced animal model (Experimental Example 9).
(§4) The test substance was directly administered to the stomach using an injection tube equipped with a sonde for oral administration in a single dose once per day.
The rats were fasted for more than 24 hours in a normal environment, SAC was administered, and 25 mg/kg of indomethacin in distilled water was orally administered after 30 minutes. After six hours from the indomethacin administration, the rats were sacrificed under ether anesthesia and their stomachs including parts of the duodenum and esophagus were isolated. The stomachs were fixed for 10 minutes by injecting 12 ml of 2% formalin, the greater curvature of each stomach was incised and unfolded, photographs of the lesions were taken, and then the areas of the lesions were measured using an image analyzer.
The gastric lesion inhibiting rate (%) was calculated in the same manner as in Experimental Example 8.

[2] = test system: gastric lesions of rats induced by hydrochloric acid-ethanol; assay: Hydrochloric acid-ethanol-induced gastric lesion animal model; type: in vivo, Sprague-Dawley rats; conditions: for lengths of gastric lesions: 1 h before HCl-ethanol; for lengths of gastric lesions / gastric lesion inhibiting rate (%): p<0.01
Description: as §1, §2, §3, §4
The test substances were administered. After one hour, 1.5 ml of 150 mM HCl in 60% ethanol was orally administered to each rat. The rats to which ethanol and SAC were administered were fasted without water in stainless steel breeding cages for 1 hour. After one hour from the hydrochloric acid-ethanol administration, the rats were sacrificed under anesthesia using ether and their stomachs including parts of the duodenum and esophagus were isolated. The insides of the stomachs were immediately washed with 13 ml of a 2% neutral buffered formalin, and the duodenum and esophagus parts were fixed with forceps. Then, 13 ml of the 2% neutral buffered formalin was added thereto and maintained for 5 minutes for fixation. The greater curvature of each stomach was incised, fixed to a dissection table, and unfolded to measure the lengths of gastric lesions using vernier calipers. Photographs of the unfolded stomachs were taken (FIG. 12) and the stomachs were fixed with a 10% neutral buffered formalin. […]

Structure (SMILES): C=CCSC[C@H](N)C(=O)O [SAC, S-allyl-L-cysteine]
- gross finding of stomach ([1]; 200 mg/kg and 400 mg/kg SAC): light gastric lesions and no bleedings
- Ulcer area of individual animal (Animal number 1-6) ([1]; G2: 100 mg/kg SAC): 1.3 and 1.6 and 1.5 and 9.4 and 2.3
- Ulcer Area (mm^2), group mean ([1]; G2: 100 mg/kg SAC oral, 30 min before 25 mg/kg indomethacin): 3.2±3.47 mm^2 and 3.2 mm^2
- Ulcer area of individual animal (Animal number 1-6) ([1]; G3: 200 mg/kg SAC): 0.0 and 0.3 and 0.9 and 0.6 and 0.7 and 0.4
- Ulcer Area (mm^2), group mean ([1]; G3: 200 mg/kg SAC, n = 6): 0.5±0.30 mm^2 and 0.5 mm^2
- Ulcer area of individual animal (Animal number 1-6) ([1]; G4: 400 mg/kg SAC): 0.8 and 0.4 and 0.1 (2×) and 0.2 and 1.0
- Ulcer Area (mm^2), group mean ([1]; G4: 400 mg/kg SAC, n = 6): 0.4±0.36 mm^2 and 0.4 mm^2
- gastric lesion inhibiting rate (%) up to ([1]; highest rate over SAC doses): about 94%
- lengths of gastric lesions ([2]; 200 mg/kg SAC oral, vehicle 209.60±28.39 mm): 106.65±16.70 mm
- gastric lesion inhibiting rate (%) ([2]; 200 mg/kg SAC): 41.12±7.97%
- lengths of gastric lesions ([2]; 400 mg/kg SAC oral): 72.25±19.33 mm
- gastric lesion inhibiting rate (%) ([2]; 400 mg/kg SAC): 65.53±9.22%
- gastric lesion inhibiting rate (%) up to ([2]; highest rate over SAC doses): about 66%
